Laboratory results from patent US9695155B2, “Herbicidal substituted pyrimidinyloxy benzene compounds” (E. I. DU PONT DE NEMOURS AND COMPANY, priority 2013, dated 2017).

Tests used:
Assay in all cases: Test C preemergence
morningglory = type: in vivo, Ipomoea coccinea; details: Ipomoea, pre-emergence
Description: (§1) Seeds of plant species selected from blackgrass (Alopecurus myosuroides), Italian ryegrass (Lolium multiflorum), wheat, winter (winter wheat, Triticum aestivum), galium (catchweed bedstraw, Galium aparine), corn (Zea mays), large (Lg) crabgrass (Digitaria sanguinalis), giant foxtail (Setaria faberii), johnsongrass (Sorghum halepense), lambsquarters (Chenopodium album), morningglory (Ipomoea coccinea), yellow nutsedge (Cyperus esculentus), pigweed (Amaranthus retroflexus), ragweed (common ragweed, Ambrosia elatior), soybean (Glycine max), barnyardgrass (Echinochloa crus-galli), oilseed rape (Brassica napus), waterhemp (common waterhemp, Amaranthus rudis), kochia (Kochia scoparia), wild oat (Avena fatua), surinam grass (Brachiaria decumbens), foxtail, green (green foxtail, Setaria viridis), goosegrass (Eleusine indica), bromegrass, downy (downy bromegrass, Bromus tectorum), nightshade (eastern black nightshade, Solanum ptycanthum), cocklebur (common cocklebur, Xanthium strumarium), cupgrass, woolly (woolly cupgrass, Eriochloa villosa), bermudagrass (Cynodon dactylon), sunflower, (common oilseed sunflower, Helianthus annuus), Russian thistle (Salsola kali), and velvetleaf (Abutilon theophrasti) were planted into a blend of loam soil and sand and treated preemergence with test chemicals formulated in a non-phytotoxic solvent mixture which included a surfactant.
(§2) At the same time, plants selected from these crop and weed species and also barley, winter (winter barley, Hordeum vulgare), windgrass (Apera spica-venti), chickweed (common chickweed, Stellaria media), deadnettle (henbit deadnettle, Lamium amplexicaule), and canarygrass (littleseed canarygrass, Phalaris minor) were planted in pots containing Redi-Earth® planting medium (Scotts Company, 14111 Scottslawn Road, Marysville, Ohio 43041) comprising spaghnum peat moss, vermiculite, wetting agent and starter nutrients and treated with postemergence applications of test chemicals formulated in the same manner. Plants ranged in height from 2 to 18 cm (1- to 4-leaf stage) for postemergence treatments. Treated plants and controls were maintained in a greenhouse for 13 to 15 days, after which time all species were compared to controls and visually evaluated. Plant response ratings, summarized in Table C, are based on a scale of 0 to 100 where 0 is no effect and 100 is complete control. A dash (-) response means no test result.

velvetleaf = type: in vivo, Abutilon theophrasti; details: Abutilon theophrasti, pre-emergence
Description: as §1, §2

yellow nutsedge = type: in vivo, Cyperus esculentus; details: Cyperus, pre-emergence
Description: as §1, §2

soybean = type: in vivo, Glycine max; details: Glycine max, pre-emergence
Description: as §1, §2

Italian ryegrass = type: in vivo, Lolium multiflorum; details: Lolium multiflorum, pre-emergence
Description: as §1, §2

johnsongrass = type: in vivo, Sorghum halepense; details: Sorghum halepense, pre-emergence
Description: as §1, §2

large (Lg) crabgrass = type: in vivo, Digitaria sanguinalis; details: Digitaria sanguinalis, pre-emergence
Description: as §1, §2

waterhemp = type: in vivo, Amaranthus rudis; details: Amaranthus tuberculatus, pre-emergence
Description: as §1, §2

giant foxtail = type: in vivo, Setaria faberii; details: Setaria faberi, pre-emergence
Description: as §1, §2

lambsquarters = type: in vivo, Chenopodium album; details: Chenopodium album, pre-emergence
Description: as §1, §2

pigweed = type: in vivo, Amaranthus retroflexus; details: Amaranthus retroflexus, pre-emergence
Description: as §1, §2

blackgrass = type: in vivo, Alopecurus myosuroides; details: Alopecurus myosuroides, pre-emergence, preemergence, scale 0 (no effect) to 100 (complete control), read-out: Blackgrass plant response rating
Description: as §1, §2

barnyardgrass = type: in vivo, Echinochloa crus-galli; details: Echinochloa crus-galli, pre-emergence
Description: as §1, §2

oilseed rape = type: in vivo, Brassica napus; details: Brassica napus, pre-emergence
Description: as §1, §2

N#Cc1cccc(Oc2ncc(Cl)cn2)c1-n1cc(Br)cn1 [Compound 52, 2-(4-bromo-1H-pyrazol-1-yl)-3-[(5-chloro-2-pyrimidinyl)oxy]benzonitrile]
pest or weed control at 62 g/ha (morningglory; 62 g ai/ha, preemergence, scale 0 (no effect) to 100 (complete control), read-out: Morningglory plant response rating): 95%
pest or weed control at 125 g/ha (morningglory; 125 g ai/ha, preemergence, scale 0 (no effect) to 100 (complete control), read-out: Morningglory plant response rating): 100%
pest or weed control at 250 g/ha (morningglory; 250 g ai/ha, preemergence, scale 0 (no effect) to 100 (complete control), read-out: Morningglory plant response rating): 100%
pest or weed control at 31 g/ha (morningglory; Preemergence, 31 g ai/ha, scale 0 to 100, 0 no effect, 100 complete control, read-out: Plant response rating, Morningglory): 55%
pest or weed control at 62 g/ha (velvetleaf; 62 g ai/ha, preemergence, scale 0 (no effect) to 100 (complete control), read-out: Velvetleaf plant response rating): 100%
pest or weed control at 125 g/ha (velvetleaf; 125 g ai/ha, preemergence, scale 0 (no effect) to 100 (complete control), read-out: Velvetleaf plant response rating): 100%
pest or weed control at 250 g/ha (velvetleaf; 250 g ai/ha, preemergence, scale 0 (no effect) to 100 (complete control), read-out: Velvetleaf plant response rating): 100%
pest or weed control at 31 g/ha (velvetleaf; Preemergence, 31 g ai/ha, scale 0 to 100, 0 no effect, 100 complete control, read-out: Plant response rating, Velvetleaf): 75%
pest or weed control at 62 g/ha (yellow nutsedge; 62 g ai/ha, preemergence, scale 0 (no effect) to 100 (complete control), read-out: Nutsedge, Yellow plant response rating): 10%
pest or weed control at 125 g/ha (yellow nutsedge; 125 g ai/ha, preemergence, scale 0 (no effect) to 100 (complete control), read-out: Nutsedge, Yellow plant response rating): 40%
pest or weed control at 250 g/ha (yellow nutsedge; 250 g ai/ha, preemergence, scale 0 (no effect) to 100 (complete control), read-out: Nutsedge, Yellow plant response rating): 45%
pest or weed control at 31 g/ha (yellow nutsedge; Preemergence, 31 g ai/ha, scale 0 to 100, 0 no effect, 100 complete control, read-out: Plant response rating, Nutsedge, Yellow): 0%
plant injury at 62 g/ha (soybean; 62 g ai/ha, preemergence, scale 0 (no effect) to 100 (complete control), read-out: Soybean plant response rating): 85%
plant injury at 125 g/ha (soybean; 125 g ai/ha, preemergence, scale 0 (no effect) to 100 (complete control), read-out: Soybean plant response rating): 90%
plant injury at 250 g/ha (soybean; 250 g ai/ha, preemergence, scale 0 (no effect) to 100 (complete control), read-out: Soybean plant response rating): 90%
plant injury at 31 g/ha (soybean; Preemergence, 31 g ai/ha, scale 0 to 100, 0 no effect, 100 complete control, read-out: Plant response rating, Soybean): 5%
pest or weed control at 62 g/ha (Italian ryegrass; 62 g ai/ha, preemergence, scale 0 (no effect) to 100 (complete control), read-out: Ryegrass, Italian plant response rating): 55%
pest or weed control at 125 g/ha (Italian ryegrass; 125 g ai/ha, preemergence, scale 0 (no effect) to 100 (complete control), read-out: Ryegrass, Italian plant response rating): 80%
pest or weed control at 250 g/ha (Italian ryegrass; 250 g ai/ha, preemergence, scale 0 (no effect) to 100 (complete control), read-out: Ryegrass, Italian plant response rating): 90%
pest or weed control at 31 g/ha (Italian ryegrass; Preemergence, 31 g ai/ha, scale 0 to 100, 0 no effect, 100 complete control, read-out: Plant response rating, Ryegrass, Italian): 5%
pest or weed control at 62 g/ha (johnsongrass; 62 g ai/ha, preemergence, scale 0 (no effect) to 100 (complete control), read-out: Johnsongrass plant response rating): 25%
pest or weed control at 125 g/ha (johnsongrass; 125 g ai/ha, preemergence, scale 0 (no effect) to 100 (complete control), read-out: Johnsongrass plant response rating): 90%
pest or weed control at 250 g/ha (johnsongrass; 250 g ai/ha, preemergence, scale 0 (no effect) to 100 (complete control), read-out: Johnsongrass plant response rating): 100%
pest or weed control at 31 g/ha (johnsongrass; Preemergence, 31 g ai/ha, scale 0 to 100, 0 no effect, 100 complete control, read-out: Plant response rating, Johnsongrass): 15%
pest or weed control at 62 g/ha (large (Lg) crabgrass; 62 g ai/ha, preemergence, scale 0 (no effect) to 100 (complete control), read-out: Crabgrass, Large plant response rating): 100%
pest or weed control at 125 g/ha (large (Lg) crabgrass; 125 g ai/ha, preemergence, scale 0 (no effect) to 100 (complete control), read-out: Crabgrass, Large plant response rating): 100%
pest or weed control at 250 g/ha (large (Lg) crabgrass; 250 g ai/ha, preemergence, scale 0 (no effect) to 100 (complete control), read-out: Crabgrass, Large plant response rating): 100%
pest or weed control at 31 g/ha (large (Lg) crabgrass; Preemergence, 31 g ai/ha, scale 0 to 100, 0 no effect, 100 complete control, read-out: Plant response rating, Crabgrass, Large): 100%
pest or weed control at 62 g/ha (waterhemp; 62 g ai/ha, preemergence, scale 0 (no effect) to 100 (complete control), read-out: Waterhemp plant response rating): 100%
pest or weed control at 125 g/ha (waterhemp; 125 g ai/ha, preemergence, scale 0 (no effect) to 100 (complete control), read-out: Waterhemp plant response rating): 100%
pest or weed control at 250 g/ha (waterhemp; 250 g ai/ha, preemergence, scale 0 (no effect) to 100 (complete control), read-out: Waterhemp plant response rating): 100%
pest or weed control at 31 g/ha (waterhemp; Preemergence, 31 g ai/ha, scale 0 to 100, 0 no effect, 100 complete control, read-out: Plant response rating, Waterhemp): 100%
pest or weed control at 62 g/ha (giant foxtail; 62 g ai/ha, preemergence, scale 0 (no effect) to 100 (complete control), read-out: Foxtail, Giant plant response rating): 100%
pest or weed control at 125 g/ha (giant foxtail; 125 g ai/ha, preemergence, scale 0 (no effect) to 100 (complete control), read-out: Foxtail, Giant plant response rating): 100%
pest or weed control at 250 g/ha (giant foxtail; 250 g ai/ha, preemergence, scale 0 (no effect) to 100 (complete control), read-out: Foxtail, Giant plant response rating): 100%
pest or weed control at 31 g/ha (giant foxtail; Preemergence, 31 g ai/ha, scale 0 to 100, 0 no effect, 100 complete control, read-out: Plant response rating, Foxtail, Giant): 100%
pest or weed control at 62 g/ha (lambsquarters; 62 g ai/ha, preemergence, scale 0 (no effect) to 100 (complete control), read-out: Lambsquarters plant response rating): 100%
pest or weed control at 125 g/ha (lambsquarters; 125 g ai/ha, preemergence, scale 0 (no effect) to 100 (complete control), read-out: Lambsquarters plant response rating): 100%
pest or weed control at 250 g/ha (lambsquarters; 250 g ai/ha, preemergence, scale 0 (no effect) to 100 (complete control), read-out: Lambsquarters plant response rating): 100%
pest or weed control at 31 g/ha (lambsquarters; Preemergence, 31 g ai/ha, scale 0 to 100, 0 no effect, 100 complete control, read-out: Plant response rating, Lambsquarters): 100%
pest or weed control at 62 g/ha (pigweed; 62 g ai/ha, preemergence, scale 0 (no effect) to 100 (complete control), read-out: Pigweed plant response rating): 100%
pest or weed control at 125 g/ha (pigweed; 125 g ai/ha, preemergence, scale 0 (no effect) to 100 (complete control), read-out: Pigweed plant response rating): 100%
pest or weed control at 250 g/ha (pigweed; 250 g ai/ha, preemergence, scale 0 (no effect) to 100 (complete control), read-out: Pigweed plant response rating): 100%
pest or weed control at 31 g/ha (pigweed; Preemergence, 31 g ai/ha, scale 0 to 100, 0 no effect, 100 complete control, read-out: Plant response rating, Pigweed): 100%
pest or weed control at 62 g/ha (blackgrass; 62 g ai/ha): 85%
pest or weed control at 125 g/ha (blackgrass; 125 g ai/ha): 90%
pest or weed control at 250 g/ha (blackgrass; 250 g ai/ha): 90%
pest or weed control at 62 g/ha (barnyardgrass; 62 g ai/ha, preemergence, scale 0 (no effect) to 100 (complete control), read-out: Barnyardgrass plant response rating): 95%
pest or weed control at 125 g/ha (barnyardgrass; 125 g ai/ha, preemergence, scale 0 (no effect) to 100 (complete control), read-out: Barnyardgrass plant response rating): 100%
pest or weed control at 250 g/ha (barnyardgrass; 250 g ai/ha, preemergence, scale 0 (no effect) to 100 (complete control), read-out: Barnyardgrass plant response rating): 100%
pest or weed control at 31 g/ha (barnyardgrass; Preemergence, 31 g ai/ha, scale 0 to 100, 0 no effect, 100 complete control, read-out: Plant response rating, Barnyardgrass): 50%
plant injury at 62 g/ha (oilseed rape; 62 g ai/ha, preemergence, scale 0 (no effect) to 100 (complete control), read-out: Oilseed Rape plant response rating): 100%
plant injury at 125 g/ha (oilseed rape; 125 g ai/ha, preemergence, scale 0 (no effect) to 100 (complete control), read-out: Oilseed Rape plant response rating): 100%
plant injury at 250 g/ha (oilseed rape; 250 g ai/ha, preemergence, scale 0 (no effect) to 100 (complete control), read-out: Oilseed Rape plant response rating): 100%
plant injury at 31 g/ha (oilseed rape; Preemergence, 31 g ai/ha, scale 0 to 100, 0 no effect, 100 complete control, read-out: Plant response rating, Oilseed Rape): 100%
